This is an account of results in patent US20250122191A1, “COMPOUNDS AS BCL-2 INHIBITORS” (Fochon Biosciences, Ltd, priority 2021, published 2025).

Data set [1] has as its system Toledo cells. Put plainly: Cell proliferation assay (MTS), Toledo cells. In kind it is cell-based. The settings on record: Homo sapiens, 72 h. The essentials: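 Toledo cells (RPMI-1640, 10% FBS) seeded at 30000 cells/well, rested 4 h, then exposed 72 h at 37 °C, 5% CO2 to compound at nine final concentrations, 1.5–10000 nM. Viability by MTS (2 h), absorbance at 490 nm. IC50 from the concentration-response.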

The subject of data set [2] is RS4;11-BCL-2 G101V cells. Put plainly: Cell proliferation assay (MTS), RS4;11-BCL-2 G101V engineered cells. Format: cell-based. To be noted: Homo sapiens, 120 h, read-out: RS4, 11 BCL2-G101V IC50. The method, boiled down:
(§1)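 Proliferation IC50 in RS4;11 lines engineered with BCL-2 mutations, measured by MTS at 490 nm after 72 h (D103E, D103Y) or 120 h (G101V, F104L) compound treatment at 37 °C.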

Data set [3] has as its system RS4;11-BCL-2 F104L cells. Put plainly: Cell proliferation assay (MTS), RS4;11-BCL-2 F104L engineered cells. To be noted: Homo sapiens, 120 h, read-out: RS4, 11 BCL2-F104L IC50. Format: cell-based. The essentials:
as §1

Data set [4] deals with RS4;11-BCL-2 D103E cells. Nature of the data set: Cell proliferation assay (MTS), RS4;11-BCL-2 D103E engineered cells. In kind it is cell-based. The settings on record: Homo sapiens, 72 h, read-out: RS4, 11 BCL2-D103E IC50. The essentials:
as §1

Data set [5] has as its system RS4;11-BCL-2 D103Y cells. Nature of the data set: Cell proliferation assay (MTS), RS4;11-BCL-2 D103Y engineered cells. In kind it is cell-based. To be noted: Homo sapiens, 72 h, read-out: RS4, 11 BCL2-D103Y IC50. From the text:
MTS testing kit was purchased from Promega (Madison, WI, USA). The RPMI-1640, Fetal bovine serum and Penicillin-Streptomycin were purchased from BI (Biological Industries, Beit Haemek, Israel). Puromycin was purchased from Beyotime (shanghai, China). Dimethyl sulfoxide (DMSO) was purchased from Sigma (St. Louis., MO, USA). RS4;11-BCL-2 G101V (Cobioer Lot. #: CBD2021063013P4), RS4;11-BCL-2 D103E (Cobioer Lot. #: CBD2021063013P4), RS4;11-BCL-2 D103Y (Cobioer Lot. #: CBD2022012101P4) and RS4;11-BCL-2 F104L (Cobioer Lot. #: CBD2021063014P4) cells were cultured in RPMI1640 supplemented with 1 ug/mL puromycin, 100 U/mL Penicillin-Streptomycin and 10% FBS.
To investigate whether a compound is able to inhibit the activity of BCL-2 mutation in cells, a mechanism-based assay using engineered cell lines stably overexpressing BCL-2 mutation (RS4;11-BCL-2 G101V, RS4;11-BCL-2 D103E, RS4;11-BCL-2 D103Y, and RS4;11-BCL-2 F104L) was developed. In this assay, the inhibition of BCL-2 mutation was reflected by the inhibition of cell proliferation of engineered RS4;11 cells. Cells were plated into 96-well plates at optimized cell density (RS4;11-BCL-2 G101V: 5000 cells/well; RS4;11-BCL-2 D103E: 7500 cells/well; RS4;11-BCL-2 D103Y: 7500 cells/well; RS4;11-BCL-2 F104L: 5000 cells/well). Plates were incubated at 37° C., with 5% CO2 for 4 h (RS4;11-BCL-2 G101V, RS4;11-BCL-2 F104L) and 24 h (RS4;11-BCL-2 D103E, RS4;11-BCL-2 D103Y), respectively. Compounds were serially diluted and added to the plates with the final concentrations of 10000, 3333.3, 1111.1, 370.4, 123.5, 41.2, 13.7, 4.6 and 1.5 nM. Plates were incubated at 37° C., with 5% CO2 for 120 h (RS4; 11-BCL-2 G101V, RS4; 11-BCL-2 F104L) and 72 h (RS4;11-BCL-2 D103E, RS4;11-BCL-2 D103Y), respectively. 20 μl MTS was added into each well and the plates were incubated at 37° C., with 5% CO2 exactly for 2 h. The absorbance was measured by a microplate reader at 490 nm. IC50 values were calculated using GraphPad Prism 8.0 software.

A short description of data set [6]: Pharmacokinetics assay in rats. In kind it is in vivo. The settings on record: rat, male Sprague-Dawley rats, po, 5 mg/kg, plasma. On the procedure: The purpose of this study was to determine the pharmacokinetics of Examples in male Sprague-Dawley rats (Supplied by Beijing Vital River Laboratory Animal Technology Co., Ltd.) following a single intravenous bolus injection at 1 mg/kg and oral gavage (PO) administration at 5 mg/kg.
Animals in Group 1 were administered with Examples by single intravenous bolus injection at 1 mg/kg, which was formulated in 10% DMSO (Sigma, Batch #LPCOS181): 60% PEG400 (Sigma, Batch #MKCH6281): 30% water, pH 5-6 at 1 mg/mL as a solution. Animals in Group 2 were administered with Examples by single oral gavage (PO) administration at 5 mg/kg, which was formulated in 10% DMSO (Sigma, Batch #BCCD6641): 60% PEG400 (Sigma, Batch #MKCL4921): 30% water at 1 mg/mL as a solution. Blood samples were collected at 0.083, 0.25, 0.5, 1, 2, 4, 8, 12 and 24 hours post-dose. Concentrations of Examples in plasma were determined by LC/MS/MS (LC: Waters UPLC; MS: Triple Quad 6500 plus).

As a reminder, the IC50 is the point on the concentration scale where inhibition reaches its midpoint. With `COc1ccc(CN2CCN(C3CC4(CCN(c5ccc(C(=O)NS(=O)(=O)c6cnc(NC[C@H]7CC[C@](C)(O)CC7)c([N+](=O)[O-])c6)c(Oc6cc7c(F)c[nH]c7nc6OC)c5)CC4)C3)[C@H](c3ccccc3C(C)C)C2)cn1` [Example 119, 2-((3-fluoro-6-methoxy-1H-pyrrolo[2,3-b]pyridin-5-yl)oxy)-N-((6-((((1r,4r)-4-hydroxy-4-methylcyclohexyl)methyl)amino)-5-nitropyridin-3-yl)sulfonyl)-4-(2-((R)-2-(2-isopropylphenyl)-4-((6-methoxypyridin-3-yl)methyl)piperazin-1-yl)-7-azaspiro[3.5]nonan-7-yl)benzamide], the IC50 in data set [1] stood at 1 nM; in data set [2], 1 nM; in data set [3], 3 nM; in data set [4], 1 nM; in data set [5] it was 10 nM.
For the compound `COc1cc(CN2CCN(C3CC4(CCN(c5ccc(C(=O)NS(=O)(=O)c6cnc(NC[C@H]7CC[C@](C)(O)CC7)c([N+](=O)[O-])c6)c(Oc6cnc7[nH]cc(F)c7c6)c5)CC4)C3)[C@H](c3ccccc3C(C)C)C2)cnc1C1CC1` [Example 255, 4-(2-((R)-4-((6-cyclopropyl-5-methoxypyridin-3-yl)methyl)-2-(2-isopropylphenyl)piperazin-1-yl)-7-azaspiro[3.5]nonan-7-yl)-2-((3-fluoro-1H-pyrrolo[2,3-b]pyridin-5-yl)oxy)-N-((6-((((1r,4r)-4-hydroxy-4-methylcyclohexyl)methyl)amino)-5-nitropyridin-3-yl)sulfonyl)benzamide], the IC50 in data set [1] was 1 nM; in data set [2], 1 nM; in data set [3] it was 3 nM; in data set [4] it was 3 nM; in data set [5], 1 nM.
What is called AUC(0-t) is exposure summed from dosing to a finite time, without extrapolation to infinity. In general, half-life refers to the time in which the quantity being followed falls by half. Take `COc1nc2[nH]cc(F)c2cc1Oc1cc(N2CCC3(CC2)CC(N2CCN(Cc4ccc(OC(F)F)cc4)C[C@H]2c2ccccc2C(C)C)C3)ccc1C(=O)NS(=O)(=O)c1cnc(NC[C@H]2CC[C@](C)(O)CC2)c([N+](=O)[O-])c1` [Example 344, 4-(2-((R)-4-(4-(difluoromethoxy)benzyl)-2-(2-isopropylphenyl)piperazin-1-yl)-7-azaspiro[3.5]nonan-7-yl)-2-((3-fluoro-6-methoxy-1H-pyrrolo[2,3-b]pyridin-5-yl)oxy)-N-((6-((((1r,4r)-4-hydroxy-4-methylcyclohexyl)methyl)amino)-5-nitropyridin-3-yl)sulfonyl)benzamide]: the IC50 was 1 nM in data set [1]; 1 nM in data set [2]; 1 nM in data set [3]; 1 nM in data set [4]; 10 nM in data set [5]. For the same compound, the AUC(0-t) in data set [6] turned out to be 5910 ng·h/mL. Besides, the half-life in data set [6] was 28.9 h. For the same compound, in data set [6] (read-out: Cmax/C0), the Cmax was 406 ng/mL.
